Three molecules from US9283277B2, “Methods and compositions for the treatment of obesity” (Children's Medical Center Corporation, priority 2008, dated 2016) can be followed below.

Test [1] deals with HFD-fed obese mice. Description: PBA alone in HFD-fed or ND-fed mice: bodyweight, hypothalamic PERK and leptin-stimulated Stat3 phosphorylation. The class given is in vivo. How it is done: C57BL/6 mice that were kept on high fat diet feeding for 25 weeks were either treated with vehicle or PBA (1 g/kg/day) for 10 days. Following the pretreatment period mice were given daily leptin (5 mg/kg/day, IP) treatment. (a) Bodyweight (g), (b) % decrease in the bodyweight, and (c) 24 hour food intake (g) during the 30 days of leptin administration. Metabolic cage analysis was performed after 25 days of treatment (d) O2 consumption (ml/kg/hr), (e) CO2 production (ml/kg/hr), (f) X-axis ambulatory activity, (g) Respiratory exchange ratio (VCO2/VO2), (h) Heat generation (kcal/hr). Dexa scan analysis of (i) Lean body mass (g), (j) Fat % and (k) Total fat amount (g). C57BL6 mice were fed a HFD for a period of 25 weeks and then either treated with PBA (1 g/kg) or VEH for 16 days. (1) PERK phosphorylation in the hypothalamus extracts. (m) Leptin-stimulated Stat3^Tyr705 phosphorylation in the VEH and PBA-treated HFD-fed mice. (n) C57BL6 mice were fed a ND for a period of 25 weeks and then either treated with PBA (1 g/kg) or VEH for 16 days. Following the treatment period mice were starved for six hours and subsequently injected with leptin (IP, 1 mg/kg). Stat3^Tyr705 phoshorylation and total Stat levels were examined in the hypothalamus extracts. (n=6 in each group). Error bars are ±S.E.M., P values are determined by Student's t-test. (*p<0.05, **p<0.01, ***p<0.001)
Mice were fed a HFD (60%) for 25 weeks and following an acclimation PBA (1 gr/kg/day) and vehicle treatment was initiated. (a) Bodyweight, (b) % decrease in bodyweight and (c) daily food intake of VEH and PBA-treated HFD-fed obese mice were analyzed during the 16 days of treatment period. (n=5 in each group) Error bars are ±S.E.M., P values are determined by Student's t-test (*p<0.05, **p<0.01, ***p<0.001).
To investigate whether PBA treatment reduces the ER stress, we analyzed the PERK phosphorylation in the HFD-fed mice, which were either treated with VEH or PBA for 16 days. […] To investigate whether leptin-stimulated activation of LepRB signaling is increased in the hypothalamus of the PBA-treated HFD-fed obese mice, we intraperitoneally injected leptin (0.75 mg/kg) following a six-hour fast and analyzed the Stat3^Tyr705 phosphorylation in the hypothalamus extracts of VEH and PBA-treated mice. […] We also analyzed the leptin-stimulated Stat3^Tyr705 phosphorylation in the hypothalamus of the wt mice, which were either treated with vehicle or PBA for 16 days.

Test [2] deals with HFD-fed obese C57BL/6 wt mice. Description: TUDCA and leptin in HFD-induced obesity model. The format is in vivo. How it is done: (a) Hypothalamic PERK phosphorylation (Thr980) after 21 days of vehicle or TUDCA (150 mg/kg/day) treatment. Following a five-day pretreatment with TUDCA (150 mg/kg/day) or vehicle, nine-ten week old ob/ob mice were treated either with leptin (1 mg/kg/day) or vehicle. (b) Body weight (g), (c) % decrease in body weight, (d) daily food intake of the ob/ob mice during 18 days of treatment period with the indicated regimens. (e) Blood glucose (mg/dl) levels at the 18th day of treatment. Metabolic cage studies were performed; (f) CO2 production (ml/kg/hr), (g) O2 consumption (ml/kg/hr), (h) Respiratory exchange ratio (VCO2/VO2), (i) X-axis ambulatory activity, (j) Heat generation (kcal/hr). Dexa scan analysis of (k) total fat amount (g), (l) fat % and (m) lean body mass (g). C57BL/6 male wt mice were kept on HFD feeding for 32 weeks and following a five day acclimation period were pretreated with TUDCA (150 mg/kg/day) for five days. At the end of pretreatment period intraperitoneal vehicle and leptin (1 mg/kg/day) treatments were started. (n) Body weight (g), (o) % decrease in bodyweight of the HFD-fed mice during the 16-day treatment. (n=6 for VEH, n=7 for Lep, n=7 for TUD, n=8 for TUD+Lep group). Error bars are ±S.E.M., P values are determined by Student's t-test. (*p<0.05, **p<0.01, ***p<0.001)
We next tested the efficacy of TUDCA as a leptin sensitizer in the HFD-induced obesity model. In this experiment we used 35 weeks old and C57BL/6 wt mice, which were kept on HFD-feeding for 32 weeks. We divided the mice into two groups for TUDCA and TUDCA-leptin co-treatment. Body weight of the mice in this cohort was between 35-52 g. We specifically chose the mice with the highest bodyweight for TUDCA and leptin co-treatment group to investigate whether leptin will become effective in these severely obese mice when administered along with the TUDCA. The initial body weight of the TUDCA group was 38.33±1.16 (g) and TUDCA+leptin group was 48.46±1.82 (g) (FIG. 5n). Following an initial five days acclimation period mice were treated with TUDCA (150 mg/kg/day) for […], and subsequently either vehicle or […] treatment was started. […] Following the acclimation, TUDCA pretreatment was started and following the five-day pretreatment, vehicle and leptin (1 mg/kg/day) administration were initiated. TUDCA alone led to a significant decrease in bodyweight by reducing the initial weight from 36.16±0.99 (g) to 32.61±0.65 during the 16 days of treatment period (FIG. 5n). This reduction corresponds to an 8.60% decrease in bodyweight (FIG. 5o). […] Indeed, in our experience TUDCA acts as a much more powerful chemical chaperone when compared to PBA, as doses of TUDCA necessary for reducing ER stress in cellular systems^25 or as a leptin-sensitizing agent is much lower than PBA. […]

The test system of test [3] is LepRB signaling (LepRB, Jak2, Stat3). Description: Leptin receptor signaling in LepRB-expressing 293 cells under tunicamycin-induced ER stress. The class given is cell-based, Human. To be noted: tunicamycin 3 μg/ml (or DMSO) 4 hours, then leptin 100 ng/ml 45 minutes. From the text: The leptin receptor belongs to the interleukin 6 (IL-6) receptor family of class I cytokine receptors^30. […] Binding of leptin to LepRb initiates a conformational change that leads to trans-autophosphorylation and activation of LepRb-associated Jak2^31,32 Activated Jak2 then phosphorylates the tyrosine residues within the LepRb/Jak2 complex to mediate downstream signaling. […] To examine whether UPR might alter the leptin signaling, LepRB-expressing 293 cells were first exposed to tunicamycin (3 μg/ml) to activate ER stress for a period of 4 hours and then treated with leptin (100 ng/ml) for 45 minutes. […] Finally, as a downstream element, leptin-stimulated Stat3 activation was analyzed.

[4] abbreviates: HFD-fed mice, PBA 1 g/kg alone, 16 days, vs VEH.
[5] abbreviates: mice on HFD 32 weeks, TUDCA 150 mg/kg/day with vehicle or leptin 1 mg/kg/day, 16 days.

Regarding `O=C(O)CCCc1ccccc1` [PBA, 4-phenyl butyric acid], in test [1] (setting [4]), the body weight result is “did not reduce” and the food intake result was “did not reduce”. In addition, the “PERK phosphorylation in the hypothalamus” value in test [1] (HFD-fed obese mice, PBA 1 g/kg, 16 days, vs VEH) is recorded as “marked decrease”. Moreover, the “leptin-stimulated Stat3 Tyr705 phosphorylation in hypothalamus” value in test [1] (HFD-fed obese mice, PBA 16 days, leptin 0.75 mg/kg IP after six-hour fast) was “marked up-regulation”. Moreover, in test [1] (ND-fed lean wt mice, PBA 16 days vs VEH, leptin IP 1 mg/kg), the “leptin-stimulated Stat3 Tyr705 phosphorylation in hypothalamus” value is “did not cause a higher activation”.

Turning to `C[C@H](CCC(=O)NCCS(=O)(=O)O)[C@H]1CC[C@H]2[C@@H]3[C@@H](O)C[C@@H]4C[C@H](O)CC[C@]4(C)[C@H]3CC[C@]12C` [TUDCA, tauroursodeoxycholic acid], the “initial body weight of the group (before acclimation)” value in test [2] (C57BL/6 wt mice on HFD 32 weeks) came out at 38.33 ± 1.16 g. Also, in test [2] (setting [5]), the “body weight after treatment” value stood at 32.61 ± 0.65 g and the decrease in bodyweight was 8.60%. Further, the “initial weight at start of treatment period” value in test [2] (mice on HFD 32 weeks, after acclimation) is 36.16 ± 0.99 g.

Take “leptin: adipocyte-derived hormone that suppresses appetite”: in test [3], the “leptin-induced Stat3 phosphorylation (Tyr705)” value was “significant increase” and the “leptin-stimulated LepRB tyrosine phosphorylation” value was “marked increase”.
